From ChEMBL document CHEMBL1201862, “PubChem BioAssay data set” (2004)
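1) Cells in 96-well plates. 2) Compound, 48 h, 5 concentrations. 3) Linear interpolation between surrounding doses. 4) Unreached endpoint = highest concentration. GI50: concentration for 50% inhibition of growth.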 Calls of active or inactive are those of the source. Rule as the data show it: active = GI50 up to about 1.1 µM and inactive = higher.

Key:
Assay in all cases: inhibition of tumour cell growth, NCI panel, 48 h
A549 = tested on: A549
HCC 2998 = tested on: HCC 2998
HL-60 = tested on: HL-60
HOP-62 = tested on: HOP-62
LOX IMVI = tested on: LOX IMVI
MDA-MB-435 = tested on: MDA-MB-435
NCI-H226 = tested on: NCI-H226
NCI-H522 = tested on: NCI-H522
OVCAR-3 = tested on: OVCAR-3
OVCAR-4 = tested on: OVCAR-4
OVCAR-5 = tested on: OVCAR-5
PC-3 = tested on: PC-3
RXF 393 = tested on: RXF 393
SNB-19 = tested on: SNB-19
SR = tested on: SR
SW-620 = tested on: SW-620
T47D = tested on: T47D
UACC-257 = tested on: UACC-257
UACC-62 = tested on: UACC-62
UO-31 = tested on: UO-31

Structure (SMILES)	GI50 (A549)	GI50 (HCC 2998)	GI50 (HL-60)	GI50 (HOP-62)	GI50 (LOX IMVI)	GI50 (MDA-MB-435)	GI50 (NCI-H226)	GI50 (NCI-H522)	GI50 (OVCAR-3)	GI50 (OVCAR-4)	GI50 (OVCAR-5)	GI50 (PC-3)	GI50 (RXF 393)	GI50 (SNB-19)	GI50 (SR)	GI50 (SW-620)	GI50 (T47D)	GI50 (UACC-257)	GI50 (UACC-62)	GI50 (UO-31)
N=C(N)N/N=C(\c1ccc(F)cc1)c1ccc(C(F)(F)F)cc1	0.412 µM (active)	0.542 µM (active)	0.213 µM (active)	0.273 µM (active)	0.323 µM (active)	0.075 µM (active)	0.348 µM (active)	0.135 µM (active)	0.33 µM (active)	1.1 µM (active)	0.497 µM (active)	0.357 µM (active)	0.22 µM (active)	0.573 µM (active)	0.284 µM (active)	0.254 µM (active)	2.08 µM (inactive)	1.16 µM (inactive)	0.282 µM (active)	0.53 µM (active)
CNC(=O)NC(CCCCNC(=O)OCc1ccccc1)C(=O)OCc1ccccc1 (stereo not given)	> 82 µM (inactive)	30.5 µM (inactive)	26.2 µM (inactive)	> 100 µM (inactive)	34.3 µM (inactive)	19.6 µM (inactive)	42.9 µM (inactive)	12.6 µM (inactive)	21.1 µM (inactive)	76.4 µM (inactive)	> 61.4 µM (inactive)	45.1 µM (inactive)	27.9 µM (inactive)	> 100 µM (inactive)	19.9 µM (inactive)	> 97.5 µM (inactive)	28.1 µM (inactive)	16.9 µM (inactive)	16.7 µM (inactive)	47.3 µM (inactive)
O=c1[nH]nc(-c2ccccc2)n1/N=C\CC/C=N\n1c(-c2ccccc2)n[nH]c1=O	> 100 µM (inactive)	40.7 µM (inactive)	29.2 µM (inactive)	> 52.4 µM (inactive)	12.9 µM (inactive)	22.7 µM (inactive)	24.5 µM (inactive)	> 94.2 µM (inactive)	20.7 µM (inactive)	52.4 µM (inactive)	60 µM (inactive)	28.1 µM (inactive)	> 67.5 µM (inactive)	45.1 µM (inactive)	34 µM (inactive)	32.2 µM (inactive)	30.8 µM (inactive)	> 82.2 µM (inactive)	17.6 µM (inactive)	> 67.6 µM (inactive)
CC(C)N1CN(c2ccccc2)C2(CCN(CCCC(=O)c3ccc(F)cc3)CC2)C1=O	4.68 µM (inactive)	7.14 µM (inactive)	19.1 µM (inactive)	3.7 µM (inactive)	7.1 µM (inactive)	11.1 µM (inactive)	6.64 µM (inactive)	21 µM (inactive)	22 µM (inactive)	3.26 µM (inactive)	5.42 µM (inactive)	18.9 µM (inactive)	28.4 µM (inactive)	12.7 µM (inactive)	18.1 µM (inactive)	4.99 µM (inactive)	6.07 µM (inactive)	2.74 µM (inactive)	17.9 µM (inactive)	19.4 µM (inactive)
